Assay results: paper PMC11530130, “Peripherally restricted PICK1 inhibitor mPD5 ameliorates pain behaviors in murine inflammatory and neuropathic pain models” (JCI Insight, 2024)
Values joined by “and” are separate entries in the source; they are usually repeats but may differ in a detail not shown here. Equal entries are not always repeated.

System: mice, CFA model of inflammatory pain
Experiment: CFA model of inflammatory pain, von Frey, s.c. administration
Type: in vivo, mouse
Details: for paw withdrawal threshold (von Frey), individual mice / von Frey paw withdrawal threshold, ipsilateral paw (Fig S7A) / von Frey paw withdrawal threshold, contralateral paw (Fig S7A): listed as myr; for von Frey paw withdrawal threshold, ipsilateral paw (Fig S7A) / von Frey paw withdrawal threshold, contralateral paw (Fig S7A): CFA mice, individual animals; for von Frey paw withdrawal threshold, ipsilateral paw (Fig S7A): group 10; for von Frey paw withdrawal threshold, contralateral paw (Fig S7A): group 10_contra; for effect on mechanical hypersensitivity (PWT): CFA, male mice
Protocol: Unless otherwise specified, wild type C57BL/6NRj mice (male and female, aged eight-weeks at the beginning of experiment) were used (Janvier, France). Animals were allowed at least seven days of habituation to the animal facility before initiation of experiment. Mice were group-housed in a temperature-controlled room, maintained on a 12/12hour light/dark cycle (lights on at 6 A.M) with free access to standard rodent chow (Altromin 1342 (Brogaarden, […]
Drug administration and dosing for animal experiments.
All compounds were diluted in PBS or saline (depending on control) and administered through different routes i.t. (7 μL/mouse)), i.p. (10 μL/g) or s.c. (10 μL/g)) as indicated. Doses of mPD5 were based on previous studies with TPD5 (6) with a subcutaneous dose-range included in the CFA studies further guiding dose selection for SNI, STZ and CIBP studies. Pregabalin dose was chosen based on previous experience from Phenotype Expertise (Marseilles, France). In the CIBP model, a dose of […] morphine was chosen to avoid hyperactivity, though known to provide only partial pain relief in this model. In remaining experiments, 5 mg/kg morphine was chosen, known to provide full pain relief, except for the conditioned place preference experiment, where 10 mg/kg was used instead in accordance with literature. […]
µL of IS1 (internal standard in MeOH (Labetalol & tolbutamide & Verapamil & dexamethasone & glyburide & Celecoxib 100 ng/mL for each)) and the mixture was vortexed for 10 min at 800 rpm and centrifuged for 15 min at 3220 × g at 4 ℃. An aliquot of 65 µL supernatant was transferred to a clean 96-well plate and centrifuged for 5 min at 3220 × g at 4 ℃, then the supernatant was directly injected for LC-MS/MS analysis. Plasma half-lives were determined from three points in the elimination phase. In a separate experiment, biodistribution was assessed (plasma, CSF, spinal cord, whole brain) at two hours after single dose of 10 µmol/kg or one hour after last injection in the repeated administration paradigm (10 µmol/kg followed by four s.c. administrations of 2 µmol/kg with one hour between). At these times, plasma levels were similar between the two paradigms. Plasma, CSF, and tissue samples (kept at 4 ℃) were processed and analysed as described above.
Concentration 10 µmol/kg: Wild type mice were habituated to the experimental room for a minimum of 60 min before initiation of the experiment. Female and male mice were run on separate days. Mice were injected s.c. with 10 μmol/kg mPD5 or sterile PBS directly before being placed in open field boxes (40 cm x 40 cm x 80 cm) for 2.5 hours with up to four mice in boxes at any one time. A video camera placed above the open field recorded the animals’ behaviour and Ethovision XT 13 (Noldus) was used to track the distance travelled by the […]
Concentration 30 + 50 µmol/kg: Animals were habituated to the experimental room for a minimum of 60 min before initiation of the experiment. At initiation of experiment, the mice (all male) were injected subcutaneously (s.c.) with mPD5 (30 or 50 μmol/kg, pH adjusted to approximately 7 with 5 M NaOH) or 0.9 % saline (B.Braun, Germany) and left in their home cage for 60 min. After exactly one hour, the mice were placed in an open field (40 cm x 40 cm x 80 cm) for 60 min. A video camera placed above the open field recorded the animals’ […]
animal. The experiment was run in cohort with Figure 2B+C of (9)).
Induction of inflammatory pain (CFA model).
Injury was induced on the right hind paw, whereas the contralateral left hind paw was used as internal control of the C57BL/6J male and female mice (Janvier, France). The inflammatory pain was induced by injection of 50 μL undiluted Complete Freund’s Adjuvant (CFA) (F5881, Sigma) unilaterally into the intraplantar surface of the right hind paw, whereas control mice were injected with the same amount of 0.9 % saline (B. Braun, Germany). All intraplantar injections were performed with an insulin needle (0.3 mL BD Micro-Fine) while the animal […]

[1] = 1 hr post myr injection on day 2
[2] = 5 hrs post myr injection on day 2
[3] = 25 hrs post myr injection on day 2
[4] = day 2 after CFA injection (before dosing)

CCCCCCCCCCCCCC(=O)N(CCOCCOCCC(=O)N[C@@H](Cc1c[nH]cn1)C(=O)N[C@@H](Cc1c[nH]c2ccccc12)C(=O)N[C@@H](CC(C)C)C(=O)N[C@@H](CCCCN)C(=O)N[C@H](C(=O)O)C(C)C)CCOCCOCCC(=O)N[C@@H](Cc1c[nH]cn1)C(=O)N[C@@H](Cc1c[nH]c2ccccc12)C(=O)N[C@@H](CC(C)C)C(=O)N[C@@H](CCCCN)C(=O)N[C@H](C(=O)O)C(C)C [mPD5, myristoyl-NPEG4-(HWLKV)2]
paw withdrawal threshold (von Frey), individual mice (CFA day 2, s.c. 50 μmol/kg, contralateral paw, 1 hr post injection): 1 (3×) and 2 (3×) | paw withdrawal threshold (von Frey), individual mice (CFA day 2, s.c. 50 μmol/kg, contralateral paw, 5 hrs post injection): 1 (3×) and 1.4 (3×) | paw withdrawal threshold (von Frey), individual mice (CFA day 2, s.c. 50 μmol/kg, contralateral paw, 24 hrs post injection): 1.4 (2×) and 2 (3×) and 1 | paw withdrawal threshold (von Frey), individual mice (CFA day 2, s.c. 50 μmol/kg, contralateral paw, 262 hrs post injection): 1 and 2 (2×) and 1.4 (3×) | paw withdrawal threshold (von Frey), individual mice (CFA day 2, s.c. 50 μmol/kg, ipsilateral paw, 1 hr post injection): 0.4 and 1.4 and 2 (2×) and 1 (2×) | paw withdrawal threshold (von Frey), individual mice (CFA day 2, s.c. 50 μmol/kg, ipsilateral paw, 5 hrs post injection): 0.6 and 0.4 (2×) and 1 and 0.16 (2×) | paw withdrawal threshold (von Frey), individual mice (CFA day 2, s.c. 50 μmol/kg, ipsilateral paw, 24 hrs post injection): 0.07 and 0.16 (2×) and 0.4 (3×) | paw withdrawal threshold (von Frey), individual mice (CFA day 2, s.c. 50 μmol/kg, ipsilateral paw, 262 hrs post injection): 1 (2×) and 1.4 (3×) and 0.6 | paw withdrawal threshold (von Frey), individual mice (CFA dose range, s.c. 2 μmol/kg, contralateral paw, 1 hr post injection): 2 (4×) and 1.4 | paw withdrawal threshold (von Frey), individual mice (CFA dose range, s.c. 2 μmol/kg, ipsilateral paw, 1 hr post injection): 0.6 and 0.16 and 1 and 1.4 and 0.4 | paw withdrawal threshold (von Frey), individual mice (CFA dose range, s.c. 2 μmol/kg, ipsilateral paw, 5 hrs post injection): 0.4 and 0.16 (3×) and 0.6 | paw withdrawal threshold (von Frey), individual mice (CFA dose range, s.c. 10 μmol/kg, contralateral paw, 1 hr post injection): 1.4 (4×) and 2 (2×) | paw withdrawal threshold (von Frey), individual mice (CFA dose range, s.c. 10 μmol/kg, contralateral paw, 5 hrs post injection): 1 (2×) and 1.4 | paw withdrawal threshold (von Frey), individual mice (CFA dose range, s.c. 10 μmol/kg, ipsilateral paw, 1 hr post injection): 0.4 and 0.6 (2×) and 1.4 and 0.16 and 1 | paw withdrawal threshold (von Frey), individual mice (CFA dose range, s.c. 10 μmol/kg, ipsilateral paw, 5 hrs post injection): 0.16 and 0.6 (2×) and 1.4 | paw withdrawal threshold (von Frey), individual mice (CFA dose range, s.c. 50 μmol/kg, contralateral paw, 1 hr post injection): 1.4 (4×) and 2 | paw withdrawal threshold (von Frey), individual mice (CFA dose range, s.c. 50 μmol/kg, contralateral paw, 5 hrs post injection): 2 (3×) and 1.4 (2×) | paw withdrawal threshold (von Frey), individual mice (CFA dose range, s.c. 50 μmol/kg, ipsilateral paw, 1 hr post injection): 1.4 (3×) and 0.6 (2×) | paw withdrawal threshold (von Frey), individual mice (CFA dose range, s.c. 50 μmol/kg, ipsilateral paw, 5 hrs post injection): 0.6 and 1 (2×) | von Frey paw withdrawal threshold, ipsilateral paw (Fig S7A) [1]: 0.6 (2×) and 1 (3×) and 0.4 | von Frey paw withdrawal threshold, ipsilateral paw (Fig S7A) [2]: 0.16 (2×) and 0.07 (2×) and 0.4 and 0.6 | von Frey paw withdrawal threshold, ipsilateral paw (Fig S7A) [3]: 0.07 (4×) and 0.16 (2×) | von Frey paw withdrawal threshold, ipsilateral paw (Fig S7A) (baseline before CFA injection): 1 and 1.4 (5×) | von Frey paw withdrawal threshold, ipsilateral paw (Fig S7A) [4]: 0.07 (4×) and 0.16 (2×) | von Frey paw withdrawal threshold, contralateral paw (Fig S7A) [1]: 1 (4×) and 1.4 and 0.6 | von Frey paw withdrawal threshold, contralateral paw (Fig S7A) [2]: 1 (4×) and 0.6 and 1.4 | von Frey paw withdrawal threshold, contralateral paw (Fig S7A) [3]: 0.6 (2×) and 1 (4×) | von Frey paw withdrawal threshold, contralateral paw (Fig S7A) (baseline before CFA injection): 1.4 (5×) and 1 | von Frey paw withdrawal threshold, contralateral paw (Fig S7A) [4]: 1 (3×) and 0.6 (2×) and 1.4 | effect on mechanical hypersensitivity (PWT) (s.c. 50 μmol/kg, 5 hours after injection): significant reduction of mechanical hypersensitivity | effect on mechanical hypersensitivity (PWT) (s.c. 2, 10 and 50 μmol/kg (all doses), 1 hour after administration): significant reversion of mechanical hypersensitivity | effect on mechanical hypersensitivity (PWT) (single s.c. 50 μmol/kg, 1 hour after injection): reverted hypersensitivity | reversion of CFA-induced mechanical hypersensitivity in female mice (female mice, s.c. 10 μmol/kg): confirmed
